Assays:
Ishikawa cells = test: Induction of AlkP expression in Ishikawa cells; format: cell-based, human; conditions: for EC (25% of 0.1 nM E2 effect) / activation at 1 µM: 72 h; for EC (25% of 0.1 nM E2 effect): concentration required to achieve 25% of the effect of 0.1 nM E2, read-out: Induction of Alkaline Phosphatase Expression (Ishikawa cells) EC25E2; for activation at 1 µM: read-out: Induction of AlkP expression (Ishikawa cells) Agonism at 1μΜ (% of 0.1nM E2)
Method: Induction of AlkP expression of Ishikawa cells is considered as a reliable in vitro measure of estrogenic activity. Assessment of AlkP expression in Ishikawa cells was carried as already described. Briefly, the cells were plated in 96-well plates at a density of 12,000 cells per well in phenol-red-free MEM supplemented with 1 μg/mL insulin and 5% DCC-FBS. […] Data on the dependence of AlkP activity on isoflavonoid concentration were curve fitted using SigmaPlot10 (SPSS Inc) and the numerical data of curve fitting were used to determine AUC as described above, using for the calculation of AUC of a particular AlkP response the very same concentration used for the respective luciferase response. The AUC of AlkP responses of the isoflavonoids of a group were expressed as % of the AUC of the luciferase response of the respective archetypal isoflavone.

MCF-7 cells = test: MCF-7 cell proliferation (MTT); format: cell-based, human; conditions: for activation at 1 µM: Homo sapiens, MCF7, 72 h, read-out: Induction of cell proliferation (MCF-7 cells) Agonism at 1μΜ (% of 0.1nM E2)
Method: Test compound effects on the proliferation of MCF-7 and MDA-MB-231 cells were assessed as previously described.

RAW 264.7 cells [1] = test: Differentiation of RAW 264.7 cells to osteoclasts, TRAP activity; format: cell-based, mouse; conditions: RANKL 50 ng/ml + E2 1 nM or compound 1 μM; 3 days; DF plus vehicle = 100
Method: Clones of RAW 264.7 cells competent to differentiate to multinuclear osteoclasts upon activation with RANKL provide valuable information on the regulation of osteoclast differentiation. Differentiation-competent RAW cells (ATCC TIB-71) were seeded in 96-well plates at a density of 9,600 cells per well. The cells were plated in the presence of test compounds or compound diluent (0.1% DMSO) and, 4 h after plating, were exposed for 3 days to 50 ng/ml RANKL or to plain medium. Osteoclastic differentiation was assessed via induction of Tartrate-Resistant Acid Phosphatase (TRAP) activity. The cells were washed with PBS and incubated with 25μl lysis buffer (0.4 M NaCl, 25 mM Hepes pH 7.7, 1.5 mM MgCl2, 0.2 mM EDTA, 1% NP40) for 5 min on ice.

HT22 cells [2] = test: Glutamate toxicity (oxytosis) of HT22 neuronal cells (MTT); conditions: for viability of HT22 cells under normal growth conditions compared to vehicle-treated cells: no glutamate
Method: Glutamate-challenged HT22 cells suffer oxidative stress-induced cell death (oxytosis) within 24 h due to glutathione depletion and consequent massive accumulation of ROS [42]. The efficacy of test compounds to prevent oxytosis of HT22 cells was assessed as already described. Briefly, HT22 cells were plated in 96-well flat bottom plates at a density of 4,000 cells per well in 100 μl of DMEM (low glucose) containing 2% FBS. 24 h after plating, the cells were treated with test compounds or compound diluent (0.1% DMSO) and then challenged with 5 mM glutamate for 24 h. […] Non-challenged cells served to assess test compound effects on cell viability, whereas challenged cells served to assess the neuroprotective activity of test compounds.

TNFα mRNA [3] = test: LPS-induced TNFα mRNA expression in RAW 264.7 cells (RT-qPCR); format: cell-based, mouse
Method: To assess TNFα mRNA expression, RAW 264.7 cells were plated in 6-well plates in alpha-MEM medium supplemented with 10% DCC-FBS, at a density of 300,000 cells per well, maintained in culture for 72 h and then exposed to vehicle (0.3% DMSO) or 3 μΜ test compound for 20 min or 24 h prior to stimulation with 100 ng/ml lipopolysaccharide (Sigma L4391) for 1 h. Extraction of total RNA, reverse transcription (RT) and quantitative PCR (qPCR) analysis of mRNA expression levels were performed as previously described. Relative gene expression levels were calculated by the comparative Ct method using the formula 2^(-ΔCt). Tumor necrosis factor alpha (TNFα) mRNA levels were normalized to the respective levels of […] (GAPDH). Test compound effects on the relative number of viable cells were assessed using crystal violet and a Safire II microplate reader (Tecan) as previously described. […] The following primers were used: […]

RAW 264.7 cells [4] = conditions: cited from earlier work
HT22 cells [5] = conditions: cited from earlier work; for prevention of oxytosis of glutamate-challenged HT22 cells: 1 μM estradiol or 2.5 μM genistein
TNFα mRNA [6] = conditions: cited from earlier work
MDA-MB-231 cells = test: MDA-MB-231 cell proliferation (MTT); format: cell-based; conditions: 0.1 nM estradiol, 1 μM ICI182,780, isoflavonoids 1 μM
Method: Test compound effects on the proliferation of MCF-7 and MDA-MB-231 cells were assessed as previously described. […] Relative numbers of cells exposed to estradiol or to ICI182,780 acted as positive and negative control, respectively.

MC3T3-E1 cells [7] = test: Differentiation of MC3T3-E1 cells to osteoblasts, AlkP activity; format: cell-based, mouse; conditions: DF + E2 1 nM or compound 1 μM; 6 days; DF plus vehicle = 100
Method: (§1) Differentiation of MC3T3-E1 cells was carried out in 96-well plates using 3,300 cells per well and was assessed via induction of, i) Alkaline Phosphatase (AlkP) activity after 6 days of treatment and, ii) mineralization of extracellular matrix after 21 days of treatment. Briefly, 24 h after plating, the cells were incubated with test compounds or vehicle i.e. the compound diluent (0.1% DMSO) and then exposed for 6 days to differentiation medium in presence or absence of differentiation factors (cf. Cell culture) with a change to fresh compounds and medium in 3 days. AlkP activity was assessed at 405 nm in a Safire II microplate reader using as substrate p-nitrophenyl-phosphate (pNPP, Sigma-Aldrich) as already described. Mineralization of MC3T3 cells was assessed by staining with Alizarin red (Fluka). Cells were cultured and treated as described above for 21 days, with media and test compounds changed every 3 days, and calcium phosphate deposition was assayed as described by Gregory et al.. Briefly, the cells were washed twice with PBS and fixed with 70% ethanol for 15 min on ice. The cells were stained with Alizarin red solution (40 mM, pH 4.2) for 30 min at room temperature, washed twice with distilled water and once with PBS. The dye from the stained mineral deposits was extracted with 33% acetic acid and the absorbance was measured at 405 nm using a Safire II microplate reader (Tecan).

MC3T3-E1 cells [8] = test: Mineralization of MC3T3-E1 cells, Alizarin red staining; format: cell-based, mouse; conditions: DF + E2 1 nM or compound 1 μM; 21 days; DF plus vehicle = 100
Method: as §1, with “Differentiation of MC3T3-E1 cells to osteoblasts has been extensively used to screen for compounds that may promote bone formation. Differentiation” for “Differentiation”

ERβ = ERβ (Homo sapiens, UniProt Q92731); test: ERE-dependent luciferase gene transcription in HEK:ERβ cells; format: cell-based; parameters: expressed in transfected cells; host or cells: HEK-293 (HEK:ERβ clone, with pERE-tk-Luciferase); conditions: compounds 1 μM, estradiol 0.1 nM; 18 h
Method: Assessment of ER/ERE-dependent luciferase gene transcription in MCF-7:D5L (express ERα) and HEK:ERβ cells (express ERβ) and determination of ER transcriptional agonism was carried as already described. Briefly, the cells were plated in 96-well plates at a density of 12,000 cells per well in phenol-red-free MEM (MCF-7:D5L cells) or phenol-red-free DMEM (HEK:ERβ cells) supplemented with 1 μg/mL insulin and 5% DCC-FBS. […] The AUC of the isoflavonoids of each group were then expressed as % of the AUC of the respective archetypal isoflavone. Since AUC data combine the efficacy as well as the potency of cell response into a single parameter, the %AUC data were considered here as a more reliable measure of relative ER/ERE-dependent luciferase expression of the test compounds.

[9] = 1 nM estradiol or 1 μM compound

ERβ, sequence (Q92731 whole entry): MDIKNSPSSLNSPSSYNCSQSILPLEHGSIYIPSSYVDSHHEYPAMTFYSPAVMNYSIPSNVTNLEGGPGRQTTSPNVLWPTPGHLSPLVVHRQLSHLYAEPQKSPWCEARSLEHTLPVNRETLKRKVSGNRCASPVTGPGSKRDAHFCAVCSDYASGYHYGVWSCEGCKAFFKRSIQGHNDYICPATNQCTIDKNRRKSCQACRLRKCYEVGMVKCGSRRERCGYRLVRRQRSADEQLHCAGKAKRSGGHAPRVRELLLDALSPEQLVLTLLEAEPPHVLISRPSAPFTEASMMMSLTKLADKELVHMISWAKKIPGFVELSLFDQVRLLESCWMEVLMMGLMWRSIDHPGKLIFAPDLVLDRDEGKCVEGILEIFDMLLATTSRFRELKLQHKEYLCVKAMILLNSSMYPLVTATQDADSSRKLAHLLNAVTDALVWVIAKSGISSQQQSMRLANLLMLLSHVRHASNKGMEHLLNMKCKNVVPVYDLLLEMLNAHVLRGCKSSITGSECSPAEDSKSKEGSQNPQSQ

SMILES	EC (25% of 0.1 nM E2 effect) (Ishikawa cells; Homo sapiens, Ishikawa)	activation at 1 µM (Ishikawa cells; Homo sapiens, Ishikawa)	activation at 1 µM (MCF-7 cells)	Differentiation of RAW 267.4 cells, TRAP expression (%) (RAW 264.7 cells [1])	viability of HT22 cells under normal growth conditions compared to vehicle-treated cells (HT22 cells [2]; [9])	concentrations that inhibit osteoclastic differentiation of RAW 264.7 cells (RAW 264.7 cells [4])	prevention of oxytosis of glutamate-challenged HT22 cells (HT22 cells [5])	further results
O=c1c(-c2ccc(O)cc2)coc2cc(O)cc(O)c12 [Compound 3, genistein]	0.03 ± 0.01 µM	110 ± 11%	79 ± 6%	106±11%	not different	≥ 10 µM	unable to prevent oxytosis	EC50 (Ishikawa cells; Homo sapiens, Ishikawa, read-out: Induction of Alkaline Phosphatase Expression (Ishikawa cells) EC50E2): 50 ± 20 nM; viability of glutamate-treated HT22 cells (% of glutamate-free cells) (HT22 cells [2]; 5 mM glutamate 24 h, 1 nM estradiol or 1 μM compound): ≤ 40%; reduction of LPS induction of TNFα mRNA expression (TNFα mRNA [3]; 3 μM, pre-treatment 24 h, LPS 100 ng/ml 1 h): 15%; suppression of LPS-stimulated TNFα mRNA expression (TNFα mRNA [3]; pre-incubated with 3 μM isoflavonoid prior to the stimulation): ineffective; inhibition of TNFα gene transcription in RAW 264.7 cells (TNFα mRNA [6]; pre-incubation with low micromolar concentrations): 30–40%
C[C@]12CC[C@@H]3c4ccc(O)cc4CC[C@H]3[C@@H]1CC[C@@H]2O [Estradiol, 17β-estradiol, reference compound]	9.83 ± 0.44 µM	100 ± 9%	100 ± 19%	105±3%	not different	≥ 10 µM	unable to prevent oxytosis	induction of AlkP expression (Ishikawa cells; 0.1 nM estradiol, vs vehicle): 3.68 fold; induction of proliferation of MCF-7 cells (MCF-7 cells; 0.1 nM estradiol, vs vehicle): 1.80 fold; proliferation of MDA-MB-231 cells (MDA-MB-231 cells): not affected; Differentiation of MC3T3-E1 cells, AlkP expression (%) (MC3T3-E1 cells [7]): 118±2 %; Differentiation of MC3T3-E1 cells, Alizarin red staining (%) (MC3T3-E1 cells [8]): 134±7 %; viability at 0.001 µM (HT22 cells [2]; Mus musculus, HT-22, 24 h, read-out: viability of glutamate-treated HT22 cells (% of glutamate-free cells)): ≤ 40%; IC50 (HT22 cells [5]; read-out: IC50, ER-dependent protection of glutamate-challenged HT22 cells from oxytosis): > 800 nM; suppression of TNFα mRNA expression and cytokine release after LPS (TNFα mRNA [6]; estrogen-free RAW 264.7 cells): unable to suppress; Induction of luciferase gene transcription through ERβ, HEK:ERβ cells, Agonism at 1μΜ (% of 0.1nM E2) (ERβ): 100 ± 12 % of 0.1nM E2

Reference: paper PMC6324813, “Biological evaluation of isoflavonoids from Genista halacsyi using estrogen-target cells: Activities of glucosides compared to aglycones” (PLoS ONE, 2019)
